In the NIST ThermoML archive (doi:10.1016/j.jct.2006.07.017):

Assay: xn = mol fraction of the nth substance listed
Settings: 101 kPa, Liquid

Cc1cccc(C)c1 [1,3-dimethylbenzene] + CN(C)C=O
Settings | mass density [kg/m3]
293.15 K, x1 = 0.0541 | 942.31
293.15 K, x1 = 0.1151 | 935.54
293.15 K, x1 = 0.1752 | 929.18
293.15 K, x1 = 0.2332 | 923.31
293.15 K, x1 = 0.3021 | 916.67
293.15 K, x1 = 0.3661 | 910.82
293.15 K, x1 = 0.4341 | 904.88
293.15 K, x1 = 0.4984 | 899.53
293.15 K, x1 = 0.5624 | 894.44
293.15 K, x1 = 0.6165 | 890.3
293.15 K, x1 = 0.6751 | 885.98
293.15 K, x1 = 0.7315 | 881.96
293.15 K, x1 = 0.8085 | 876.67
293.15 K, x1 = 0.8758 | 872.21
293.15 K, x1 = 0.9425 | 867.93
303.15 K, x1 = 0.0625 | 932.16
303.15 K, x1 = 0.1251 | 925.21
303.15 K, x1 = 0.1852 | 918.87
303.15 K, x1 = 0.2515 | 912.21
303.15 K, x1 = 0.3251 | 905.23
303.15 K, x1 = 0.3895 | 899.45
303.15 K, x1 = 0.4517 | 894.13
303.15 K, x1 = 0.5214 | 888.45
303.15 K, x1 = 0.5865 | 883.4
303.15 K, x1 = 0.6485 | 878.8
303.15 K, x1 = 0.7125 | 874.25
303.15 K, x1 = 0.7885 | 869.05
303.15 K, x1 = 0.8458 | 865.29
303.15 K, x1 = 0.9012 | 861.75
303.15 K, x1 = 0.9666 | 857.68
313.15 K, x1 = 0.0569 | 923.43
313.15 K, x1 = 0.1125 | 917.21
313.15 K, x1 = 0.1812 | 909.9
313.15 K, x1 = 0.2554 | 902.46
313.15 K, x1 = 0.3251 | 895.89
313.15 K, x1 = 0.4023 | 889.03
313.15 K, x1 = 0.4785 | 882.65
313.15 K, x1 = 0.5445 | 877.43
313.15 K, x1 = 0.6054 | 872.82
313.15 K, x1 = 0.6695 | 868.19
313.15 K, x1 = 0.7254 | 864.3
313.15 K, x1 = 0.7812 | 860.56
313.15 K, x1 = 0.8452 | 856.41
313.15 K, x1 = 0.9032 | 852.77
313.15 K, x1 = 0.9577 | 849.43
323.15 K, x1 = 0.0482 | 914.86
323.15 K, x1 = 0.1065 | 908.29
323.15 K, x1 = 0.1684 | 901.67
323.15 K, x1 = 0.2341 | 895.02
323.15 K, x1 = 0.3051 | 888.24
323.15 K, x1 = 0.3659 | 882.75
323.15 K, x1 = 0.4252 | 877.65
323.15 K, x1 = 0.4932 | 872.11
323.15 K, x1 = 0.5641 | 866.62
323.15 K, x1 = 0.6247 | 862.17
323.15 K, x1 = 0.6951 | 857.22
323.15 K, x1 = 0.7554 | 853.17
323.15 K, x1 = 0.8251 | 848.68
323.15 K, x1 = 0.8812 | 845.18
323.15 K, x1 = 0.9572 | 840.6
333.15 K, x1 = 0.0547 | 904.33
333.15 K, x1 = 0.1122 | 897.9
333.15 K, x1 = 0.1815 | 890.59
333.15 K, x1 = 0.2551 | 883.29
333.15 K, x1 = 0.3151 | 877.68
333.15 K, x1 = 0.3821 | 871.76
333.15 K, x1 = 0.4554 | 865.64
333.15 K, x1 = 0.5054 | 861.68
333.15 K, x1 = 0.5625 | 857.35
333.15 K, x1 = 0.6262 | 852.72
333.15 K, x1 = 0.6785 | 849.09
333.15 K, x1 = 0.7412 | 844.91
333.15 K, x1 = 0.8054 | 840.8
333.15 K, x1 = 0.8714 | 836.74
333.15 K, x1 = 0.9548 | 831.81
343.15 K, x1 = 0.0625 | 893.44
343.15 K, x1 = 0.1214 | 886.95
343.15 K, x1 = 0.1851 | 880.31
343.15 K, x1 = 0.2451 | 874.4
343.15 K, x1 = 0.3121 | 868.17
343.15 K, x1 = 0.3852 | 861.78
343.15 K, x1 = 0.4451 | 856.83
343.15 K, x1 = 0.5054 | 852.1
343.15 K, x1 = 0.5641 | 847.72
343.15 K, x1 = 0.6214 | 843.62
343.15 K, x1 = 0.6885 | 839.06
343.15 K, x1 = 0.7451 | 835.37
343.15 K, x1 = 0.8125 | 831.16
343.15 K, x1 = 0.8821 | 827
343.15 K, x1 = 0.9525 | 822.95
353.15 K, x1 = 0.0521 | 884.42
353.15 K, x1 = 0.112 | 877.82
353.15 K, x1 = 0.1785 | 870.9
353.15 K, x1 = 0.2352 | 865.33
353.15 K, x1 = 0.2958 | 859.69
353.15 K, x1 = 0.3562 | 854.38
353.15 K, x1 = 0.4215 | 848.95
353.15 K, x1 = 0.4854 | 843.93
353.15 K, x1 = 0.5412 | 839.75
353.15 K, x1 = 0.6121 | 834.72
353.15 K, x1 = 0.6858 | 829.79
353.15 K, x1 = 0.7551 | 825.38
353.15 K, x1 = 0.8254 | 821.12
353.15 K, x1 = 0.8851 | 817.65
353.15 K, x1 = 0.9512 | 813.95
